The results in this text go back to patent publication US12522606B2, “Modified pyrrolo- and pyrazolo-pyrimidines for prostate cancer therapy” (University of Washington, priority 2020, dated 2026).

Assay [1] deals with LNCaP95. The experiment in a line: MTT proliferation assay, LNCaP95. The format is cell-based. The settings on record: Homo sapiens, LNCaP-95; for EC50: Table 1, LNCaP95 (AR+ PCa), unit inferred; for inhibition at 10 µM: read-out: MTT % inhib @ 10 μM LNCaP95. The protocol: Anti-tumor activity was determined by screening a series of compounds against the castrate-resistant, androgen-receptor-positive, prostate cancer cell line LNCaP95. […] Inhibition of proliferation was determined based on the level of LNCaP95 cell growth suppression using an MTT assay (NAD(P)H-dependent cellular oxidoreductase enzymatic activities)) read at 72 and 96 hours after addition of the compounds. […] Each cell line was be tested in quadruplicate.

Assay [2] has as its system PC3. The experiment in a line: MTT proliferation assay, PC3. The settings on record: Homo sapiens; for inhibition at 10 µM: PC-3, read-out: MTT % inhib @ 10 μM PC3; for EC50: read-out: EC50 PC3.

On to `CNc1ncnc2c1c(-c1cccc(C(C)C)c1)cn2CC(C)(C)OC` [Example 21, 5-(3-isopropylphenyl)-7-(2-methoxy-2-methylpropyl)-N-methyl-7H-pyrrolo[2,3-d]pyrimidin-4-amine], for which the EC50 in assay [1] is 7 µM; in assay [2], over 20 µM. Also, the inhibition at 10 µM was -2.7% in assay [1] and -5.4% in assay [2].
Turning to `CCOCCNc1ncnc2c1c(-c1ccc(-c3ccc(OC)cc3)cc1)cn2CC(C)(C)O` [Example 38, 1-(4-(2-ethoxyethylamino)-5-(4′-methoxybiphenyl-4-yl)-7H-pyrrolo[2,3-d]pyrimidin-7-yl)-2-methylpropan-2-ol], the half-maximal effective concentration (EC50) was 4 µM in assay [1] and over 20 µM in assay [2]. Besides, the inhibition at 10 µM in assay [1] was determined as 39.5%; in assay [2], 11.6%.
In the case of `COc1ccc2cc(-c3cn(CC(C)(C)O)c4ncnc(NC5CC5)c34)ccc2c1` [Example 42, 1-(4-(cyclopropylamino)-5-(6-methoxynaphthalen-2-yl)-7H-pyrrolo[2,3-d]pyrimidin-7-yl)-2-methylpropan-2-ol], the 50% effective concentration (EC50) in assay [1] is 20 µM; in assay [2], over 20 µM.
`CCOc1ccc2cc(-c3cn(CC(C)(C)O)c4ncnc(NCCN)c34)ccc2c1` [Example 23, 1-(4-(2-aminoethylamino)-5-(6-ethoxynaphthalen-2-yl)-7H-pyrrolo[2,3-d]pyrimidin-7-yl)-2-methylpropan-2-ol]: in assay [1], the EC50 was over 10 µM and the inhibition at 10 µM was 22.9%. Besides, in assay [2], the inhibition at 10 µM amounted to 27.2% and the half-maximal effective concentration (EC50) is over 20 µM.
Taken in the same sequence, the figures for `CNc1ncnc2c1c(-c1ccc(-c3ccccc3)cc1F)nn2CC(C)(C)O` [Example 20, 1-(3-(3-fluorobiphenyl-4-yl)-4-(methylamino)-1H-pyrazolo[3,4-d]pyrimidin-1-yl)-2-methylpropan-2-ol] were over 20 µM, 16.5%, 8.3% and over 20 µM.
Taken in the same sequence, the figures for `CCOCCNc1ncnc2c1c(-c1ccc(-c3ccccc3)cc1)cn2CC(C)(C)O` [Example 37, 1-(5-(biphenyl-4-yl)-4-(2-ethoxyethylamino)-7H-pyrrolo[2,3-d]pyrimidin-7-yl)-2-methylpropan-2-ol] were over 10 µM, 8.4%, 9% and over 20 µM.
Turning to `CCOc1ccc2cc(-c3cn(CC(C)(C)O)c4ncnc(NC(C)C)c34)ccc2c1` [Example 44, 1-(5-(6-ethoxynaphthalen-2-yl)-4-(isopropylamino)-7H-pyrrolo[2,3-d]pyrimidin-7-yl)-2-methylpropan-2-ol], the concentration for a half-maximal effect (EC50) was determined as 5 µM in assay [1] and 20 µM in assay [2].
As for `CCOCCNc1ncnc2c1c(-c1ccc3cc(OC4CC4)ccc3c1)cn2CC(C)(C)O` [Example 35, 1-(5-(6-cyclopropoxynaphthalen-2-yl)-4-(2-ethoxyethylamino)-7H-pyrrolo[2,3-d]pyrimidin-7-yl)-2-methylpropan-2-ol], in assay [1], the concentration for a half-maximal effect (EC50) turned out to be 4 µM and the inhibition at 10 µM turned out to be 27.1%. In assay [2], the inhibition at 10 µM is 16.5% and the concentration for a half-maximal effect (EC50) was over 20 µM.
Taken in the same sequence, the figures for `CC(C)(O)Cn1cc(-c2ccc3cc(OC4CC4)ccc3c2)c2c(NCCOCCNC(=O)OC3CC/C=C/CCC3)ncnc21` (stereo not drawn) [Example 29, trans-cyclooct-4-enyl 2-(2-(5-(6-cyclopropoxynaphthalen-2-yl)-7-(2-hydroxy-2-methylpropyl)-7H-pyrrolo[2,3-d]pyrimidin-4-ylamino)ethoxy)ethylcarbamate] were 5 µM, 33.7%, -31% and over 20 µM.
Regarding `CNc1ncnc2c1c(-c1cccc(C(C)C)c1)nn2CC(C)(C)O` [Example 16, 1-(3-(3-isopropylphenyl)-4-(methylamino)-1H-pyrazolo[3,4-d]pyrimidin-1-yl)-2-methylpropan-2-ol], in assay [1], the EC50 is over 15 µM and the inhibition at 10 µM turned out to be 11.3%. In addition, in assay [2], the inhibition at 10 µM is -10.5% and the EC50 is over 20 µM.
As for `CNc1ncnc2c1c(-c1cccc(-c3ccccc3)c1)nn2CC(C)(C)O` [Example 19, 1-(3-(biphenyl-3-yl)-4-(methylamino)-1H-pyrazolo[3,4-d]pyrimidin-1-yl)-2-methylpropan-2-ol], the EC50 was 5 µM in assay [1] and over 20 µM in assay [2]. Besides, the inhibition at 10 µM in assay [1] was 21.3%; in assay [2] it was 4.4%.
Turning to `COCCOc1ncnc2c1c(-c1ccc3ccccc3c1)cn2CC(C)(C)O` [Example 7, 1-(4-(2-methoxyethoxy)-5-(naphthalen-2-yl)-7H-pyrrolo[2,3-d]pyrimidin-7-yl)-2-methylpropan-2-ol], in assay [1], the EC50 amounted to 12 µM and the inhibition at 10 µM came to 23.9%. Also, in assay [2], the inhibition at 10 µM was -36.2% and the EC50 was over 20 µM.
With `COc1ccc2cc(-c3cn(CC(C)(C)O)c4ncnc(NC(C)C)c34)ccc2c1` [Example 45, 1-(4-(isopropylamino)-5-(6-methoxynaphthalen-2-yl)-7H-pyrrolo[2,3-d]pyrimidin-7-yl)-2-methylpropan-2-ol], the 50% effective concentration (EC50) was 5 µM in assay [1] and over 20 µM in assay [2].
As for `CCOCCNc1ncnc2c1c(-c1ccc3cc(OC(C)C)ccc3c1)cn2CC(C)(C)O` [Example 36, 1-(4-(2-ethoxyethylamino)-5-(6-isopropoxynaphthalen-2-yl)-7H-pyrrolo[2,3-d]pyrimidin-7-yl)-2-methylpropan-2-ol], the concentration giving a half-maximal response (EC50) is 8 µM in assay [1] and over 20 µM in assay [2]. The inhibition at 10 µM turned out to be 22% in assay [1] and 15.7% in assay [2].
Take `CC(C)(O)Cn1cc(-c2ccc3cc(OC4CC4)ccc3c2)c2c(NCCOCCN)ncnc21` [Example 27, 1-(4-(2-(2-aminoethoxy)ethylamino)-5-(6-cyclopropoxynaphthalen-2-yl)-7H-pyrrolo[2,3-d]pyrimidin-7-yl)-2-methylpropan-2-ol]: in assay [1], the EC50 was over 10 µM and the inhibition at 10 µM came to 8.6%. In assay [2], the inhibition at 10 µM was -5.2% and the concentration for a half-maximal effect (EC50) was over 20 µM.
In the case of `CC(C)(O)Cn1cc(-c2ccc3cc(OC4CC4)ccc3c2)c2c(NCCO)ncnc21` [Example 26, 1-(5-(6-cyclopropoxynaphthalen-2-yl)-4-(2-hydroxyethylamino)-7H-pyrrolo[2,3-d]pyrimidin-7-yl)-2-methylpropan-2-ol], in assay [1], the half-maximal effective concentration (EC50) came out at 5 µM and the inhibition at 10 µM came to 40.6%. In assay [2], the inhibition at 10 µM was 9.2% and the half-maximal effective concentration (EC50) is over 20 µM.
With `CCOc1ccc2cc(-c3cn(CC(C)(C)O)c4ncnc(NCCO)c34)ccc2c1` [Example 25, 1-(5-(6-ethoxynaphthalen-2-yl)-4-(2-hydroxyethylamino)-7H-pyrrolo[2,3-d]pyrimidin-7-yl)-2-methylpropan-2-ol], in assay [1], the 50% effective concentration (EC50) turned out to be 5 µM and the inhibition at 10 µM is 34.6%. In addition, in assay [2], the inhibition at 10 µM stood at 10.3% and the 50% effective concentration (EC50) is over 20 µM.
Consider `CC(C)(O)Cn1cc(-c2ccc(-c3ccccc3)cc2)c2c(NCCO)ncnc21` [Example 30, 1-(5-(biphenyl-4-yl)-4-(2-hydroxyethylamino)-7H-pyrrolo[2,3d]pyrimidin-7-yl)-2-methylpropan-2-ol], for which, in assay [1], a half-maximal effect (EC50) was put at 4 µM and the inhibition at 10 µM is 37.8%. Further, in assay [2], the inhibition at 10 µM was -18.1% and the EC50 was over 20 µM.
On the same counts, the results for `CC(C)(O)Cn1cc(-c2ccc3cc(OC4CC4)ccc3c2)c2c(NCCN)ncnc21` [Example 24, 1-(4-(2-aminoethylamino)-5-(6-cyclopropoxynaphthalen-2-yl)-7H-pyrrolo[2,3-d]pyrimidin-7-yl)-2-methylpropan-2-ol] are over 10 µM, 35.1%, 6.7% and over 20 µM.
On to `CCOc1ccc2cc(-c3cn(CC(C)(C)O)c4ncnc(NC5CC5)c34)ccc2c1` [Example 41, 1-(4-(cyclopropylamino)-5-(6-ethoxynaphthalen-2-yl)-7H-pyrrolo[2,3-d]pyrimidin-7-yl)-2-methylpropan-2-ol], for which the concentration for a half-maximal effect (EC50) was determined as 6 µM in assay [1] and 10 µM in assay [2].
For the molecule `C#CCCC1(CCOC(=O)NCCNc2ncnc3c2c(-c2ccc4cc(OCC)ccc4c2)cn3CC(C)(C)O)N=N1` [Example 10, 2-(3-(but-3-ynyl)-3H-diazirin-3-yl)ethyl 2-(5-(6-ethoxynaphthalen-2-yl)-7-(2-hydroxy-2-methylpropyl)-7H-pyrrolo[2,3-d]pyrimidin-4-ylamino)ethylcarbamate], the figures for the EC50 in assay [1] and in assay [2] were 2 µM and over 20 µM, respectively.
Consider `CC(C)(O)Cn1cc(-c2ccc3cc(OC4CC4)ccc3c2)c2c(NC3CC3)ncnc21` [Example 17, 1-(5-(6-cyclopropoxynaphthalen-2-yl)-4-(cyclopropylamino)-7H-pyrrolo[2,3-d]pyrimidin-7-yl)-2-methylpropan-2-ol], for which the EC50 in assay [1] turned out to be 2.5 µM; in assay [2] it was 10 µM.
`CCOCCNc1ncnc2c1c(-c1ccc(-c3ccc(CC)cc3)cc1)cn2CC(C)(C)O` [Example 39, 1-(4-(2-ethoxyethylamino)-5-(4′-ethylbiphenyl-4-yl)-7H-pyrrolo[2,3-d]pyrimidin-7-yl)-2-methylpropan-2-ol]: in assay [1], the EC50 is over 10 µM and the inhibition at 10 µM was 29.2%. Moreover, in assay [2], the inhibition at 10 µM came out at 8.3% and the EC50 was over 20 µM.
Taken in the same sequence, the figures for `CCc1ccc(-c2ccc(-c3cn(CC(C)(C)OC)c4ncnc(NC)c34)cc2)cc1` [Example 34, 5-(4′-ethylbiphenyl-4-yl)-7-(2-methoxy-2-methylpropyl)-N-methyl-7H-pyrrolo[2,3-d]pyrimidin-4-amine] were 6 µM, 29.7%, 9.1% and over 20 µM.
